The NIST ThermoML archive (doi:10.1016/j.fluid.2013.05.001)
“And” between values parts separate entries of the source, which are not always exact repeats. Identical values can stand only once. Numbers after ± are expanded uncertainties. Blank lines part the entries; values can stand above or below the molecule they belong to.

Columns and labels:
[1] = mn = molality of the nth substance listed, in mol/kg; details: 85.9 kPa, Liquid, Vibrating tube method
[2] = refractive index (Na D-line) (dimensionless); details: 298.15 K; 85.9 kPa; Liquid; Standard Abbe refractometry
[3] = 298.15 K, 85.9 kPa, Liquid; for viscosity: Capillary tube (Ostwald / Ubbelohde) method; for mass density: Vibrating tube method

Compound: C1CCOC1 [tetrahydrofuran]
refractive index [2]: 1.4047 ± 0.0004 | viscosity [3]: 0.448 ± 0.005 mPa·s | mass density [3]: 882.02 ± 1 kg/m3

Compound: C[S+](C)[O-] [dimethyl sulfoxide]
refractive index [2]: 1.4762 ± 0.0004 | viscosity [3]: 1.867 ± 0.013 mPa·s | mass density [3]: 1095.29 ± 1 kg/m3

Compound: C1COCCO1 [1,4-dioxane]
refractive index [2]: 1.4188 ± 0.0004 | viscosity [3]: 1.158 ± 0.009 mPa·s | mass density [3]: 1027.93 ± 1 kg/m3

Other lines, results leading:

mass density ([1]; 288.15 K, m1 = 0.0106): 946.52 ± 1 kg/m3 and 937.32 ± 1 kg/m3 | mass density ([1]; 288.15 K, m1 = 0.0323): 938.87 ± 1 kg/m3 and 948.07 ± 1 kg/m3 | mass density ([1]; 288.15 K, m1 = 0.0497): 940.11 ± 1 kg/m3 and 949.32 ± 1 kg/m3 | mass density ([1]; 288.15 K, m1 = 0.0704): 941.6 ± 1 kg/m3 and 950.78 ± 1 kg/m3 | mass density ([1]; 288.15 K, m1 = 0.0899): 942.99 ± 1 kg/m3 and 952.18 ± 1 kg/m3 | mass density ([1]; 288.15 K, m1 = 0.1092): 944.36 ± 1 kg/m3 and 953.53 ± 1 kg/m3 | mass density ([1]; 288.15 K, m1 = 0.129): 945.78 ± 1 kg/m3 and 954.93 ± 1 kg/m3 | mass density ([1]; 288.15 K, m1 = 0.1492): 947.22 ± 1 kg/m3 and 956.35 ± 1 kg/m3 | mass density ([1]; 288.15 K, m1 = 0.1742): 949.07 ± 1 kg/m3 and 958.13 ± 1 kg/m3 | mass density ([1]; 308.15 K, m1 = 0.0106): 928.08 ± 1 kg/m3 | mass density ([1]; 308.15 K, m1 = 0.0323): 929.62 ± 1 kg/m3 | mass density ([1]; 308.15 K, m1 = 0.0497): 930.86 ± 1 kg/m3 | mass density ([1]; 308.15 K, m1 = 0.0704): 932.36 ± 1 kg/m3 | mass density ([1]; 308.15 K, m1 = 0.0899): 933.77 ± 1 kg/m3 | mass density ([1]; 308.15 K, m1 = 0.1092): 935.17 ± 1 kg/m3 | mass density ([1]; 308.15 K, m1 = 0.129): 936.59 ± 1 kg/m3 | mass density ([1]; 308.15 K, m1 = 0.1492): 938.07 ± 1 kg/m3 | mass density ([1]; 308.15 K, m1 = 0.1742): 939.94 ± 1 kg/m3 | mass density ([1]; 318.15 K, m1 = 0.0106): 918.85 ± 1 kg/m3 | mass density ([1]; 318.15 K, m1 = 0.0323): 920.4 ± 1 kg/m3 | mass density ([1]; 318.15 K, m1 = 0.0497): 921.65 ± 1 kg/m3 | mass density ([1]; 318.15 K, m1 = 0.0704): 923.15 ± 1 kg/m3 | mass density ([1]; 318.15 K, m1 = 0.0899): 924.58 ± 1 kg/m3 | mass density ([1]; 318.15 K, m1 = 0.1092): 925.99 ± 1 kg/m3 | mass density ([1]; 318.15 K, m1 = 0.129): 927.42 ± 1 kg/m3 | mass density ([1]; 318.15 K, m1 = 0.1492): 928.91 ± 1 kg/m3 | mass density ([1]; 318.15 K, m1 = 0.1742): 930.75 ± 1 kg/m3
Compound: CC(=O)Nc1ccc(OC(=O)c2ccccc2O)cc1 [salophen] + CC(=O)N(C)C

refractive index [2]: 1.436 ± 0.0004 | viscosity [3]: 0.961 ± 0.009 mPa·s | mass density [3]: 936.57 ± 1 kg/m3
Compound: CC(=O)N(C)C [N,N-dimethylethanamide]

mass density ([1]; 288.15 K, m1 = 0.0106): 1039.84 ± 1 kg/m3 and 1028.52 ± 1 kg/m3 | mass density ([1]; 288.15 K, m1 = 0.0284): 1029.51 ± 1 kg/m3 and 1040.81 ± 1 kg/m3 | mass density ([1]; 288.15 K, m1 = 0.0495): 1030.66 ± 1 kg/m3 and 1041.93 ± 1 kg/m3 | mass density ([1]; 288.15 K, m1 = 0.0693): 1031.72 ± 1 kg/m3 and 1042.96 ± 1 kg/m3 | mass density ([1]; 288.15 K, m1 = 0.0855): 1032.57 ± 1 kg/m3 and 1043.79 ± 1 kg/m3 | mass density ([1]; 288.15 K, m1 = 0.1104): 1033.86 ± 1 kg/m3 and 1045.04 ± 1 kg/m3 | mass density ([1]; 288.15 K, m1 = 0.1313): 1034.92 ± 1 kg/m3 and 1046.05 ± 1 kg/m3 | mass density ([1]; 288.15 K, m1 = 0.1482): 1035.78 ± 1 kg/m3 and 1046.86 ± 1 kg/m3 | mass density ([1]; 288.15 K, m1 = 0.1707): 1036.89 ± 1 kg/m3 and 1047.91 ± 1 kg/m3 | mass density ([1]; 308.15 K, m1 = 0.0106): 1017.22 ± 1 kg/m3 | mass density ([1]; 308.15 K, m1 = 0.0284): 1018.23 ± 1 kg/m3 | mass density ([1]; 308.15 K, m1 = 0.0495): 1019.39 ± 1 kg/m3 | mass density ([1]; 308.15 K, m1 = 0.0693): 1020.48 ± 1 kg/m3 | mass density ([1]; 308.15 K, m1 = 0.0855): 1021.35 ± 1 kg/m3 | mass density ([1]; 308.15 K, m1 = 0.1104): 1022.68 ± 1 kg/m3 | mass density ([1]; 308.15 K, m1 = 0.1313): 1023.75 ± 1 kg/m3 | mass density ([1]; 308.15 K, m1 = 0.1482): 1024.62 ± 1 kg/m3 | mass density ([1]; 308.15 K, m1 = 0.1707): 1025.75 ± 1 kg/m3 | mass density ([1]; 318.15 K, m1 = 0.0106): 1005.88 ± 1 kg/m3 | mass density ([1]; 318.15 K, m1 = 0.0284): 1006.9 ± 1 kg/m3 | mass density ([1]; 318.15 K, m1 = 0.0495): 1008.09 ± 1 kg/m3 | mass density ([1]; 318.15 K, m1 = 0.0693): 1009.19 ± 1 kg/m3 | mass density ([1]; 318.15 K, m1 = 0.0855): 1010.08 ± 1 kg/m3 | mass density ([1]; 318.15 K, m1 = 0.1104): 1011.41 ± 1 kg/m3 | mass density ([1]; 318.15 K, m1 = 0.1313): 1012.5 ± 1 kg/m3 | mass density ([1]; 318.15 K, m1 = 0.1482): 1013.37 ± 1 kg/m3 | mass density ([1]; 318.15 K, m1 = 0.1707): 1014.52 ± 1 kg/m3
Compound: CC(=O)Nc1ccc(OC(=O)c2ccccc2O)cc1 [salophen] + C1COCCO1

mass density ([1]; 288.15 K, m1 = 0.0103): 893.79 ± 1 kg/m3 and 882.94 ± 1 kg/m3 | mass density ([1]; 288.15 K, m1 = 0.0316): 884.82 ± 1 kg/m3 and 895.65 ± 1 kg/m3 | mass density ([1]; 288.15 K, m1 = 0.0496): 886.39 ± 1 kg/m3 and 897.21 ± 1 kg/m3 | mass density ([1]; 288.15 K, m1 = 0.0699): 888.13 ± 1 kg/m3 and 898.95 ± 1 kg/m3 | mass density ([1]; 288.15 K, m1 = 0.0908): 889.9 ± 1 kg/m3 and 900.71 ± 1 kg/m3 | mass density ([1]; 288.15 K, m1 = 0.1099): 891.51 ± 1 kg/m3 and 902.31 ± 1 kg/m3 | mass density ([1]; 288.15 K, m1 = 0.1293): 893.11 ± 1 kg/m3 and 903.88 ± 1 kg/m3 | mass density ([1]; 288.15 K, m1 = 0.1498): 894.79 ± 1 kg/m3 and 905.55 ± 1 kg/m3 | mass density ([1]; 288.15 K, m1 = 0.1704): 896.46 ± 1 kg/m3 and 907.21 ± 1 kg/m3 | mass density ([1]; 308.15 K, m1 = 0.0103): 871.92 ± 1 kg/m3 | mass density ([1]; 308.15 K, m1 = 0.0316): 873.82 ± 1 kg/m3 | mass density ([1]; 308.15 K, m1 = 0.0496): 875.41 ± 1 kg/m3 | mass density ([1]; 308.15 K, m1 = 0.0699): 877.17 ± 1 kg/m3 | mass density ([1]; 308.15 K, m1 = 0.0908): 878.97 ± 1 kg/m3 | mass density ([1]; 308.15 K, m1 = 0.1099): 880.59 ± 1 kg/m3 | mass density ([1]; 308.15 K, m1 = 0.1293): 882.21 ± 1 kg/m3 | mass density ([1]; 308.15 K, m1 = 0.1498): 883.9 ± 1 kg/m3 | mass density ([1]; 308.15 K, m1 = 0.1704): 885.6 ± 1 kg/m3 | mass density ([1]; 318.15 K, m1 = 0.0103): 860.78 ± 1 kg/m3 | mass density ([1]; 318.15 K, m1 = 0.0316): 862.7 ± 1 kg/m3 | mass density ([1]; 318.15 K, m1 = 0.0496): 864.3 ± 1 kg/m3 | mass density ([1]; 318.15 K, m1 = 0.0699): 866.08 ± 1 kg/m3 | mass density ([1]; 318.15 K, m1 = 0.0908): 867.89 ± 1 kg/m3 | mass density ([1]; 318.15 K, m1 = 0.1099): 869.54 ± 1 kg/m3 | mass density ([1]; 318.15 K, m1 = 0.1293): 871.17 ± 1 kg/m3 | mass density ([1]; 318.15 K, m1 = 0.1498): 872.89 ± 1 kg/m3 | mass density ([1]; 318.15 K, m1 = 0.1704): 874.58 ± 1 kg/m3
Compound: CC(=O)Nc1ccc(OC(=O)c2ccccc2O)cc1 [salophen] + C1CCOC1

mass density ([1]; 288.15 K, m1 = 0.0099): 1105.64 ± 1 kg/m3 and 1095.61 ± 1 kg/m3 | mass density ([1]; 288.15 K, m1 = 0.0307): 1096.3 ± 1 kg/m3 and 1106.33 ± 1 kg/m3 | mass density ([1]; 288.15 K, m1 = 0.0493): 1096.92 ± 1 kg/m3 and 1106.94 ± 1 kg/m3 | mass density ([1]; 288.15 K, m1 = 0.07): 1097.62 ± 1 kg/m3 and 1107.62 ± 1 kg/m3 | mass density ([1]; 288.15 K, m1 = 0.0911): 1098.35 ± 1 kg/m3 and 1108.33 ± 1 kg/m3 | mass density ([1]; 288.15 K, m1 = 0.1086): 1098.97 ± 1 kg/m3 and 1108.91 ± 1 kg/m3 | mass density ([1]; 288.15 K, m1 = 0.1311): 1099.71 ± 1 kg/m3 and 1109.66 ± 1 kg/m3 | mass density ([1]; 288.15 K, m1 = 0.1483): 1100.31 ± 1 kg/m3 and 1110.22 ± 1 kg/m3 | mass density ([1]; 288.15 K, m1 = 0.1717): 1101.12 ± 1 kg/m3 and 1111 ± 1 kg/m3 | mass density ([1]; 308.15 K, m1 = 0.0099): 1085.58 ± 1 kg/m3 | mass density ([1]; 308.15 K, m1 = 0.0307): 1086.29 ± 1 kg/m3 | mass density ([1]; 308.15 K, m1 = 0.0493): 1086.93 ± 1 kg/m3 | mass density ([1]; 308.15 K, m1 = 0.07): 1087.63 ± 1 kg/m3 | mass density ([1]; 308.15 K, m1 = 0.0911): 1088.38 ± 1 kg/m3 | mass density ([1]; 308.15 K, m1 = 0.1086): 1089 ± 1 kg/m3 | mass density ([1]; 308.15 K, m1 = 0.1311): 1089.77 ± 1 kg/m3 | mass density ([1]; 308.15 K, m1 = 0.1483): 1090.36 ± 1 kg/m3 | mass density ([1]; 308.15 K, m1 = 0.1717): 1091.18 ± 1 kg/m3 | mass density ([1]; 318.15 K, m1 = 0.0099): 1075.56 ± 1 kg/m3 | mass density ([1]; 318.15 K, m1 = 0.0307): 1076.29 ± 1 kg/m3 | mass density ([1]; 318.15 K, m1 = 0.0493): 1076.95 ± 1 kg/m3 | mass density ([1]; 318.15 K, m1 = 0.07): 1077.68 ± 1 kg/m3 | mass density ([1]; 318.15 K, m1 = 0.0911): 1078.44 ± 1 kg/m3 | mass density ([1]; 318.15 K, m1 = 0.1086): 1079.07 ± 1 kg/m3 | mass density ([1]; 318.15 K, m1 = 0.1311): 1079.87 ± 1 kg/m3 | mass density ([1]; 318.15 K, m1 = 0.1483): 1080.47 ± 1 kg/m3 | mass density ([1]; 318.15 K, m1 = 0.1717): 1081.32 ± 1 kg/m3
Compound: CC(=O)Nc1ccc(OC(=O)c2ccccc2O)cc1 [salophen] + C[S+](C)[O-]
